Laboratory results as given in patent publication US20180186796A1, “COMPOUNDS AND USES THEREOF” (LEAD DISCOVERY SIENA S.R.L., priority 2014, published 2018).
Like-named read-outs stand apart in the source and are kept apart here.

Legend:
[1] = biological target: T1, Recombinant human Src (Homo sapiens, UniProt P12931); experiment: Enzymatic assay on isolated Src; format: biochemical
T1 construct: purchased Upstate (Lake Placid, N.Y.)
Description: Recombinant human Src was purchased from Upstate (Lake Placid, N.Y.).

[2] = tested on: U87 cells; experiment: Proliferation assay on U87 cells; format: cell-based, human
Description: (§1) U87 and U251 cells were purchased from European Collection of Cell Cultures (ECACC, Salisbury, UK) and were cultured in DMEM medium supplemented with 10% Foetal Bovine Serum. In order to determine antiproliferative effect of drugs tumor cells were seeded at 2×10^5 cells/ml density and treated with compounds at indicated concentrations. The cultures were maintained at 37° C. in 5% v/v CO2 for 72 h. Cell number and viability were evaluated by Trypan blue exclusion test. Viable cells were expressed as percentage respect to cells treated with vehicle (=100%). Mean and SD values of at least three different experiments are shown.
(§2) U87 and U251 cells were purchased from European Collection of Cell Cultures (ECACC, Salisbury, UK) and were cultured in DMEM medium supplemented with 10% Foetal Bovine Serum. In order to determine antiproliferative effect of drugs tumor cells were seeded at 2×10^5 cells/ml density and treated with compounds at indicated concentrations. The cultures were maintained at 37° C. in 5% v/v CO2 for 72 h. Cell number and viability were evaluated by Trypan blue exclusion test. Viable cells were expressed as percentage respect to untreated cells (=100%/). Mean and SD values of at least three different experiments are shown.

[3] = In vivo pharmacokinetics / biodistribution; design: species or system mice; settings: administered compound itself, 50 mg/Kg i.p., BALB/C mice
Description: The animal protocols used were reviewed and approved by the Animal Care and Ethics Committee of the Universita{grave over ( )} degli Studi di Siena, Italy. Male BALB/C mice (weight 20-30 g) were obtained from Charles River (Milan, Italy). […] The blood, previously heparinized, was centrifuged at 4000 rpm for 20 minutes to separate the plasma fraction and then 500 μl were collected in a test tube. […] Samples were centrifuged at 4000 rpm for 20 minutes, the supernatant was recovered, dried under vacuum and analyzed by LC-UV-MS. Brain was homogenized using a glass/glass Potter-Elvehjem homogenizer in presence of Tris-HCl buffer (50 mM) and compounds were recovered using 7 mL of ACN then treated as previously described for blood samples.

[4] = tested on: SH-SY5Y neuroblastoma cells; experiment: SH-SY5Y xenograft mouse model; format: in vivo, mice
Description: Male CD1 nude mice (Charles River, Milan, Italy) were maintained under the guidelines established by the inventors' Institution (University of L'Aquila, Medical School and Science and Technology School Board Regulations, complying with the Italian government regulation n. 116 Jan. 27 1992 for the use of laboratory animals). Before any invasive manipulation, mice were anesthetized with a mixture of ketamine (25 mg/mL)/xylazine (5 mg/mL). Tumor grafts were obtained by injecting s.c. 1×10^6 SH-SY5Y cells in 100 μL of 12 mg/mL Matrigel (Becton Dickinson, Franklin Lakes, N.J., USA). Tumor growth was monitored daily by measuring the average tumor diameter. The tumor volume was expressed in mm^3 according to the formula 4/3πr^3.

[5] = Microsomal stability assay
[6] = tested on: hBMEC endothelial cells; experiment: Sprouting assay; format: cell-based; settings: 0.5 μM and 1 μM, 24 h
Description: The brain microvascular endothelial cell line hBMEC was purchased from ScienCell Research Laboratory (Carlsbad, Calif., USA). HBMEC cells were suspended in culture medium containing 20% methylcellulose, seeded at a density of 1000 cells/well, into nonadhesive 96 well plate and cultured at 37° C. (5% CO2, 100% humidity). Under these conditions, suspended endothelial cells (EC) form spontaneously within 4 h a single cell aggregate known as spheroid. Spheroids were harvested within 24 h and used for in gel sprouting angiogenesis experiments. Briefly, spheroids were seeded in micro-slides coated with Matrigel and images were observed after 24 h, captured by an inverted microscope and analysed with the NIH Image J analysis system. For statistical analysis, number of sprouts per spheroid, with a minimum of 10 spheroids for each treatment, was considered.

[7] = biological target: T2, Recombinant human Abl (Homo sapiens, UniProt P00519); experiment: Enzymatic assay on isolated Abl; format: biochemical; settings: mean of at least two experiments
T2 construct: purchased Upstate
T2 sequence (P00519 whole entry): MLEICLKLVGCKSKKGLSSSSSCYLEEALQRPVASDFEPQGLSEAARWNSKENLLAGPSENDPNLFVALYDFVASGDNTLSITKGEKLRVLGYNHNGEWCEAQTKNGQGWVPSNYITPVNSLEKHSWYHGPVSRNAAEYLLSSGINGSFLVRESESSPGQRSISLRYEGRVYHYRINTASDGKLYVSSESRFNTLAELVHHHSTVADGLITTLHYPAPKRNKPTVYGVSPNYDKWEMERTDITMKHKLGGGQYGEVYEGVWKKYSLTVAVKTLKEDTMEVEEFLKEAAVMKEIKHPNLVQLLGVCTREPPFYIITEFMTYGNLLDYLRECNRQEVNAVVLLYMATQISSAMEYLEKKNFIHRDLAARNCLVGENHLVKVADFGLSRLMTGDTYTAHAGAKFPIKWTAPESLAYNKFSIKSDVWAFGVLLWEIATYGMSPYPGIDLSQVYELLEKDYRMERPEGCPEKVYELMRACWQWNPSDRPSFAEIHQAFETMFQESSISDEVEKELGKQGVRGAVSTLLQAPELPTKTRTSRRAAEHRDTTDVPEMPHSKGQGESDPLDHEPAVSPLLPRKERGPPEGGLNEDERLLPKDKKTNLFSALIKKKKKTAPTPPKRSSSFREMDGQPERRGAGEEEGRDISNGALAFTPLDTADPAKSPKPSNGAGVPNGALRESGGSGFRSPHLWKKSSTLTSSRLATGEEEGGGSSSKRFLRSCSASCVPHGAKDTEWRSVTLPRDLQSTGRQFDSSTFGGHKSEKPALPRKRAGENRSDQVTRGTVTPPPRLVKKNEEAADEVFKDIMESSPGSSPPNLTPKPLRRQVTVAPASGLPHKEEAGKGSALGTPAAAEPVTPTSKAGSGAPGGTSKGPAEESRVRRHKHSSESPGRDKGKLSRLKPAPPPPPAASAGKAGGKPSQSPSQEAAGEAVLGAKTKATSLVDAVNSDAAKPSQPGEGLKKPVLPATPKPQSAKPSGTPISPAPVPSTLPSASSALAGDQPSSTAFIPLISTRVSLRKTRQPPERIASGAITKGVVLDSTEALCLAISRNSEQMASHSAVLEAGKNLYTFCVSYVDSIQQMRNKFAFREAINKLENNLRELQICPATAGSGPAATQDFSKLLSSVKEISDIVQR
Description: Recombinant human Abl was purchased from Upstate.
Activity was measured in a filter binding assay using an Abl specific peptide substrate (Abtide, Upstate).

[8] = PAMPA, intestinal (GI) permeability; settings: Membrane Retention, GI
[9] = tested on: U87 cells; experiment: Orthotopic mouse model of GBM; format: in vivo, mice; settings: 50 mg/kg three times per week for 4 weeks
Description: Survival curves (days) of orthotopic mouse model of GBM.
Male CD1 nude mice (Charles River, Milan, Italy) were maintained under the guidelines established by University of L'Aquila, Medical School and Science and Technology School Board Regulations, complying with the Italian government regulations for the use of laboratory animals. Before any invasive manipulation, mice were anesthetized with a mixture of ketamine (25 mg/ml)/xylazine (5 mg/ml). Tumor grafts were obtained by injecting with a Hamilton syringe mounted on a stereotactic instrument, 2*10^3 U87 cells resuspended in 2 microL PBS (David Kopf Instruments, CA, USA). The cells were injected after the exposition of periosteal cranic site and the drimming of a 1 mm diameter hole localized at 4 mm from striatum and with a depth of 4 mm. The wound was treated with antibiotics and was surgically sutured.

[10] = tested on: U251 cells; experiment: Proliferation assay on U251 cells; format: cell-based, human
Description: as §1, §2

[11] = tested on: SH-SY5Y cells; experiment: Cell cycle analysis; format: cell-based, human
Description: Cells (SH-SY5Y) were seeded in 60-mm petri dishes at a density of 3×10^5. After treatment and subsequent incubation for 24 h at 37° C. and 5% CO2 in humidified atmosphere, harvested cells were washed and fixed overnight with 70% ethanol. Then, ethanol was removed by centrifugation and the cells resuspended in PBS, stained with 50 μg/mL propidium iodide (PI) at 4° C. for 30 min in the dark. Stained cells were analyzed by Tali image based cytometer (Life Technologies, Carlsbad, Calif., USA) counting 20 fields for sample and exported fcs raw data were elaborated by Flowing software (v. 2.5.0, by Perttu Terho, University of Turku, Finland).

[12] = tested on: U87 cells; experiment: U87 xenograft; format: in vivo, mice
Description: Male CD1 nude mice (Charles River, Milan, Italy) were maintained under the guidelines established by University of L'Aquila, Medical School and Science and Technology School Board Regulations, complying with the Italian government regulations for the use of laboratory animals. Before any invasive manipulation, mice were anesthetized with a mixture of ketamine (25 mg/ml)/xylazine (5 mg/ml). Tumor grafts were obtained by injecting s.c. 1×10^6 U87 cells in 100 μL of 12 mg/mL Matrigel (Becton Dickinson, Franklin Lakes, N.J., USA). Mice were divided in four groups: treated with vehicle, treated with radiotherapy, treated with Si306 and treated with Si306 in combination with radiotherapy. […] At the endpoint, tumors were recovered and weighted. The tumor xenograft was irradiated once with 4Gy dose at first sign of palpable tumor mass.
Antibodies were purchased from Cell Signaling (Cell Signaling Technology, Inc.).

T1 sequence (P12931 whole entry): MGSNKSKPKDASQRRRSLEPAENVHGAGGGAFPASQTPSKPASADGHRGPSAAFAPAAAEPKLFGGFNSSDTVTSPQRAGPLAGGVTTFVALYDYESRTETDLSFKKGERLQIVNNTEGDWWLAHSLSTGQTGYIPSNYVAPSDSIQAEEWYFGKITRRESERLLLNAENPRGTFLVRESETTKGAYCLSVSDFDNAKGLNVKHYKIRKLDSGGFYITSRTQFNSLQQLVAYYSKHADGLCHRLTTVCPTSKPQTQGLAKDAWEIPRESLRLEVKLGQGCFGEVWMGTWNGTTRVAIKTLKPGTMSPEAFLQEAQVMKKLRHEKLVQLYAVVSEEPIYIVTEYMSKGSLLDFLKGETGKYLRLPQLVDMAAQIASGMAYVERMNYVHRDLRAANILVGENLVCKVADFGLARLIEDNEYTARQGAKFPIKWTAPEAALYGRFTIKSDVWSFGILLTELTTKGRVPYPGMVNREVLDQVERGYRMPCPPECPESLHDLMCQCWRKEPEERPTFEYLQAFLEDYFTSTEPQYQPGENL

ClC(Cn1ncc2c(Nc3cccc(Br)c3)nc(SCCN3CCOCC3)nc21)c1ccccc1 (centres unmarked) [Si306, N-(3-Bromophenyl)-1-(2-chloro-2-phenylethyl)-6-[(2-morpholin-4-ylethyl)thio]-1H-pyrazolo[3,4-d]pyrimidin-4-amine]
Ki ([1]; mean of at least two experiments, read-out: Enzymatic Data (Ki, μM) c-Src): 0.13 µM | Ki ([1]; read-out: Ki c-Src): ~0.1 µM | reduction of the total cell number vs control ([2]; U87, 5 μM, 72 h): about 50% | dead cells ([2]; U87, 30 μM, 72 h): more than 80% | antiproliferative effect in combination with mitomycin C ([2]; U87, 72 h, 1 μM Si306 plus increasing mitomycin C): synergic antiproliferative effect | Quantity of Compound, BLOOD ([3]; 30′): 10.2 ± 4.82 nmol of compound/g of tissue | Quantity of Compound, BLOOD ([3]; 4 h): 2.6 ± 1.31 nmol of compound/g of tissue | Quantity of Compound, BLOOD ([3]; 8 h): 2.4 ± 0.29 nmol of compound/g of tissue | Quantity of Compound, BLOOD ([3]; 24 h): 1.1 ± 0.65 nmol of compound/g of tissue | Quantity of Compound, BRAIN ([3]; 15′): 0.3 ± 0.18 nmol of compound/g of tissue | Quantity of Compound, BRAIN ([3]; 24 h): 2.3 ± 0.70 nmol of compound/g of tissue | tumour growth inhibition ([4]; 50 mg/kg): significantly inhibited | signs of distress or weight loss ([4]; 50 mg/kg daily oral): did not shown signs of distress or weight loss | reduction in mean tumor volume compared to placebo ([4]; 50 mg/kg daily oral, 60 days): more than 50% | Metabolic Stab. % ([5]; percentage of unmodified drug, Table 8): 97.2% | Metabolic Stab. ([5]; percentage of unmodified parent drug, human liver microsomes 60 min): 96% | angiogenesis, number of sprouts per spheroid [6]: significant reduction of angiogenesis | Ki [7]: 0.12 µM | PAMPA GI (MR %) [8]: (46.1) % | survival of mice respect to control group [9]: significant ability in prolonging survival | reduction of the total cell number vs control ([10]; U251, 5 μM, 72 h): about 50% | antiproliferative effect in combination with mitomycin C ([10]; U251, 72 h, 1 μM Si306 plus increasing mitomycin C): synergic antiproliferative effect | apoptosis, treated cells ([11]; 10 μM): about 50% | accumulation of cells in the G1 phase of cell cycle ([11]; 0.1-10 μM, starting from 0.1 μM): significant and dose-dependent accumulation | reduction of tumor weight vs CTR ([12]; 50 mg/kg every other day for 30 days, alone): about 50% | myofibroblast content (alpha-SMA expression) in tumor masses ([12]; immunohistochemistry of excised tumors): reduction of myofibroblast content
